According to patent US10478506B2, “Fucoidan nanogels and methods of their use and manufacture” (Memorial Sloan Kettering Cancer Center, priority 2014, dated 2019):

Columns and labels:
[1] = test system: B16F10 melanoma lung metastases
Description: A luciferase-expressing B16F10 melanoma lung metastasis model was used. The cells were injected into the tail vein at day 0. The FiDOX particles and controls were injected at day 7. The progression of metastasis was monitored with bioluminescence imaging after injection of luciferin. The bioluminescence images show the luciferase-expressing B16F10 cancer cells after injection of D-luciferin, 21 days after inoculation and 14 days after a single treatment.
FIG. 8 is a plot showing laboratory mouse survival curve data in the B16F10 melanoma lung metastasis model treated with a single injection of FiDOX nanoparticles, injected on day 7.
C57BL/6 mice were inoculated intravenously (i.v.) with 1×10^5B16-F10 cells on day 0 and the tumor was allowed to establish until day 7. In one experiment, mice were divided randomly into 5 groups and injected i.v. with FiDOX, Fi, DexDOX.
After treatment, mice were monitored up to 8 or 17 weeks, depending on the treatment received. At the end of the experiments, mice were sacrificed, their lungs were collected, and the number of surface-visible tumors was examined. The Kaplan-Meier method was used to evaluate survival.
The anti-tumor efficacy of P-selectin-targeted drug carrier nanoparticles was assessed against an aggressive experimental metastasis model. […]

[2] = test system: A375, SW620, LOVO and HCT116 xenografts; experiment: Tumor xenografts in nude mice, tumor growth; format: in vivo; details: single administration
Description: Six-week-old female athymic NU/NU nude mice were injected subcutaneously with 5×10^5 of A375, SW620, LOVO, and HCT116 in […] culture media/Matrigel at a 1:5 ratio. For cell-line-derived xenografts, animals were randomized at a tumor volume of 70 to 120 mm^3 to four to six groups, with n=8-10 tumors per group. […] Xenografts were measured with digital caliper, and tumor volumes were determined with the formula: […]. Animals were euthanized using CO2 inhalation. Tumor volumes are plotted as means±SEM. Mice were housed in air-filtered laminar flow cabinets with a 12-hr light/dark cycle and food and water ad libitum. […]

SMILES | survival ([1]; single injection on day 7) | tumor burden ([1]; single injection, bioluminescence) | tumor growth inhibition [2]
COc1cccc2c1C(=O)c1c(O)c3c(c(O)c1C2=O)C[C@@](O)(C(=O)CO)C[C@@H]3O[C@H]1C[C@H](N)[C@H](O)[C@H](C)O1 [doxorubicin, (7S,9S)-7-[(2R,4S,5S,6S)-4-amino-5-hydroxy-6-methyloxan-2-yl]oxy-6,9,11-trihydroxy-9-(2-hydroxyacetyl)-4-methoxy-8,10-dihydro-7H-tetracene-5,12-dione] | did not have a significant effect | did not have a significant effect | –
Cn1cnc2c(F)c(Nc3ccc(Br)cc3F)c(C(=O)NOCCO)cc21 [MEK162, 6-(4-bromo-2-fluoroanilino)-7-fluoro-N-(2-hydroxyethoxy)-3-methylbenzimidazole-5-carboxamide] | – | – | no effect
